{"source": "patent US20040141995A1", "about": "“MHC class I-restricted and MHC class II-restricted EBNA1 peptides” (priority 2002, published 2004)", "format_in_all_cases": "cell-based, human", "key": {"[1]": {"system": "1359mel-specific CD8+ T cell recognition of 1359mel cells", "procedure": "(§1) Target cells were incubated with various protease inhibitors for 2 h, washed and co-cultured with CD8^+ T cells overnight for IFN-γ release assays. Solvents used to solubilize inhibitors were also used as controls. […] Target cells were treated with different concentrations of protease inhibitors. After washes, the treated cells were co-cultured with M3-W1-B9 CD8^+ T cells overnight for IFN-γ release assays.\nTo test whether TPCK or AEBSF affected T cell recognition of other antigens, 1359mel were treated with the same concentrations of TPCK or AEBSF as described in FIG. 14A. […] AEBSF is an irreversible, specific inhibitor of serine proteases, while TPCK is an irreversible inhibitor of chymotrypsin and many other serine and cysteine proteases."}, "[2]": {"system": "M3-W1-B9 CD8+ T cell recognition of HEK293/B8/EBNA1-GFP, LCL111 and 1359mel/EBNA1-GFP target cells", "experiment": "Effect of inhibitors on M3W1-B9 CD8+ T cell recognition of EBNA1-expressing target cells (IFN-γ release)", "conditions": "for dose dependence of inhibition of M3-W1-B9 CD8+ T cell recognition of HEK293/B8/EBNA1-GFP target cells: different concentrations of protease inhibitors (FIG. 14C); for effect on M3W1-B9 CD8+ T cell recognition of HEK293 transfected with HLA-B8 plus EBNA1-GFP: target cells treated with inhibitor, co-cultured with T cells overnight, IFN-γ release", "procedure": "(§2) HEK 293 cells co-transfected with EBNA1-GFP were treated with various concentrations of ZAL inhibitor for 10 h. After washing, cells were incubated with T cells overnight for IFN-γ release assays. Various dilutions of DMSO were used as controls. T cell activity in the absence of inhibitor was used as 100% activity.\n(§3) HLA-B8 expressing HEK293/EBNA1-GFP target cells were treated with an emetine inhibitor at three concentrations for 1h. After three washings, cells were co-cultured with M3-W1-B9 CD8^+ T cells overnight for IFN-γ release assays. […] HLA-B8 positive 1359 cells with the EBNA1-P518-526 peptide after the treatment of 1359mel cells were pulsed with 3 different concentration of emetine. FIG. 13B illustrates the determination of the sensitivity of recognition of TRP2-specific CD8 T cells to the treatment with emetine. 1363mel cells were treated with 3 different concentrations of emetine. After 3 washes, the cells were co-cultured with TRP2-specific CD8 ^+ T cells. The treated cells pulsed with a TRP2 peptide were used to examine the effect of emetine on recognition of MHC class I/TRP2 complexes on the cell surface; and\nas §1\nTarget cells were incubated in the absence or presence of various concentrations of inhibitors for different period of time, depending on the type of inhibitors used. The cells were then washed and counted and co-cultured with T cells overnight for IFN-γ release assays. The solvents used to dissolve the inhibitors, such as DMSO, methanol and ethanol were also used as controls.\n(§4) HEK293 cells were transfected with EBNA1-GFP and HLA-B8 cDNAs, and then treated them with different concentrations of ZAL and lactacystin, specific inhibitors of proteasomes. […] To exclude the potential nonspecific effect of ZAL on T cell recognition, the effects of ZAL inhibitor were tested on melanoma-reactive TIL102-CD4^+ T cells, which recognize a MHC class II-restricted epitope on the cell surface of 102mel tumor cells, and of P3-B7 CD4^+ T cells, which recognize HLA-DP3 expressing HEK293 cells transfected with Ii-EBNA1 as target cells. […] The effects of lactacystin, another specific proteasome inhibitor, were also tested on T cell recognition.\nHLA-B8 expressing HEK293/EBNA1-GFP cells were treated with different concentrations of irreversible (emetine) and reversible (puromycin and cycloheximide) protein synthesis inhibitors for 1 h. After washing to remove inhibitors, the treated cells were co-cultured with antigen-specific CD8^+ T cells. […] Since blocking protein synthesis should rapidly decrease the peptide supply required for the export of MHC class I molecules from the ER to the cell surface as well as synthesis of MHC class I molecules, the treatment of cells with emetine would decrease the overall antigen presentation by MHC class I molecules."}, "[3]": {"system": "P3-B7 CD4+ T cell recognition of HEK293/DP3/Ii-EBNA1 target cells", "experiment": "Effect of inhibitors on P3-B7 CD4+ T cell recognition of EBNA1 target cells", "conditions": "Homo sapiens, CD4+ T cell; 1 μM emetine; read-out: inhibition of EBNA1-specific P3-B7 CD4+ T cell recognition", "procedure": "as §2, §4\nHLA-B8 positive 1359mel cells were pulsed with the EBNA1-P518-526 peptide after the cells were treated with different concentrations of emetine and washed. […] 1363mel cells (TRP2^+ and HLA-A2^+) were treated with different concentrations of emetine, and then tested for their ability to stimulate TRP2-specific CD8^+ T cells. […]"}, "[4]": {"system": "TRP2-specific CD8+ T cell recognition of 1363mel cells", "experiment": "Effect of emetine on recognition of 1363mel cells by TRP2-specific CD8+ T cells", "procedure": "as §3\nHLA-B8 positive 1359mel cells were pulsed with the EBNA1-P518-526 peptide after the cells were treated with different concentrations of emetine and washed. […] 1363mel cells (TRP2^+ and HLA-A2^+) were treated with different concentrations of emetine, and then tested for their ability to stimulate TRP2-specific CD8^+ T cells. […] However, there was only 30% inhibition of T cell recognition at 1 μM emetine treatment compared with over 90% inhibition of EBNA1-specific CD8^+ T cells at the same concentration of emetine (FIG. 13A). […] On the other hand, the processing and presentation of the TRP2 and CD4^+ T cell EBNA1 epitopes are less dependent on the production of short-lived DRiPs."}}, "note": "Like-named read-outs stand apart in the source and are kept apart here.", "data": [{"compound": "NCCc1ccc(S(=O)(=O)F)cc1", "note": "[AEBSF]", "values": [{"measurement": "inhibition of recognition of 1359mel cells by 1359mel-specific CD8+ T cells", "setting": "[1]; same inhibitor concentrations as FIG. 14A", "value": "No inhibition"}, {"measurement": "dose dependence of inhibition of M3-W1-B9 CD8+ T cell recognition of HEK293/B8/EBNA1-GFP target cells", "setting": "[2]", "value": "in a dose-dependent manner"}, {"measurement": "effect on M3W1-B9 CD8+ T cell recognition of HEK293 transfected with HLA-B8 plus EBNA1-GFP", "setting": "[2]; washed", "value": "significantly blocked"}]}, {"compound": "Cc1ccc(S(=O)(=O)N[C@@H](Cc2ccccc2)C(=O)CCl)cc1", "note": "[TPCK]", "values": [{"measurement": "inhibition of recognition of 1359mel cells by 1359mel-specific CD8+ T cells", "setting": "[1]", "value": "No inhibition"}, {"measurement": "dose dependence of inhibition of M3-W1-B9 CD8+ T cell recognition of HEK293/B8/EBNA1-GFP target cells", "setting": "[2]", "value": "in a dose-dependent manner"}, {"measurement": "effect on M3W1-B9 CD8+ T cell recognition of HEK293 transfected with HLA-B8 plus EBNA1-GFP", "setting": "[2]; washed", "value": "significantly blocked"}]}, {"compound": "CC[C@H]1CN2CCc3cc(OC)c(OC)cc3[C@@H]2C[C@@H]1C[C@H]1NCCc2cc(OC)c(OC)cc21", "note": "[emetine]", "values": [{"measurement": "inhibition of M3W1-B9 CD8+ T cell recognition of HLA-B8 expressing HEK293/EBNA1-GFP target cells", "setting": "[2]; 5 μM inhibitor for 1 h", "value": "completely inhibited"}, {"measurement": "inhibition at 1 µM", "setting": "[2]; Homo sapiens, T-cell, 1 h, 1 μM inhibitor for 1 h, read-out: inhibition of M3W1-B9 CD8+ T cell recognition of HLA-B8 expressing HEK293/EBNA1-GFP target cells", "value": 94, "unit": "%"}, {"measurement": "effect on T cell recognition of 1359mel cells pulsed with EBNA1-P518-526 peptide after inhibitor treatment", "setting": "[2]; different concentrations of emetine, washed, then peptide-pulsed", "value": "slightly inhibited"}, {"measurement": "inhibition at 1 µM", "setting": "[3]", "value": 20, "unit": "%"}, {"measurement": "effect on T cell recognition of TRP2 peptide-pulsed target cells after inhibitor treatment", "setting": "[4]", "value": "slightly inhibited"}, {"measurement": "inhibition at 1 µM", "setting": "[4]; Homo sapiens, T-cell, 1 μM emetine, read-out: inhibition of recognition of 1363mel target cells by TRP2-specific CD8+ T cells", "value": 30, "unit": "%"}, {"measurement": "concentration dependence of inhibition of recognition of 1363mel target cells by TRP2-specific CD8+ T cells", "setting": "[4]; different concentrations of emetine", "value": "increased with the increasing concentrations"}]}]}
